Reference: PubChem BioAssay (NCI)
Where “and” joins values, the source holds several entries; their conditions need not be identical. Equal entries are not always repeated.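 Five concentrations, 48 hours, 96-well plates. The concentration for 50% growth inhibition is given as GI50. At the TGI there is no net growth.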

How the values were obtained:
Test in all cases: inhibition of tumour cell growth, NCI panel, 48 h
SK-OV-3 ovarian = system: SK-OV-3 ovarian
RXF 393 renal = system: RXF 393 renal
DU-145 prostate = system: DU-145 prostate
HS 578T breast = system: HS 578T breast
MCF7 breast = system: MCF7 breast
NCI-H23 lung = system: NCI-H23 lung
SK-MEL-2 melanoma = system: SK-MEL-2 melanoma
SR leukemia = system: SR leukemia
OVCAR-5 ovarian = system: OVCAR-5 ovarian
COLO 205 colon = system: COLO 205 colon
ACHN renal = system: ACHN renal
M14 melanoma = system: M14 melanoma
NCI-H522 lung = system: NCI-H522 lung
CAKI-1 renal = system: CAKI-1 renal
NCI/ADR-RES ovarian = system: NCI/ADR-RES ovarian
TK-10 renal = system: TK-10 renal
SK-MEL-5 melanoma = system: SK-MEL-5 melanoma
T-47D breast = system: T-47D breast
HT29 colon = system: HT29 colon

SMILES	TGI (SK-OV-3 ovarian) [µM]	TGI (RXF 393 renal) [µM]	TGI (DU-145 prostate) [µM]	TGI (HS 578T breast) [µM]	TGI (MCF7 breast) [µM]	TGI (NCI-H23 lung) [µM]	TGI (SK-MEL-2 melanoma) [µM]	GI50 (SR leukemia)	TGI (SR leukemia) [µM]	TGI (OVCAR-5 ovarian) [µM]	TGI (COLO 205 colon) [µM]	TGI (ACHN renal) [µM]	TGI (M14 melanoma) [µM]	TGI (NCI-H522 lung) [µM]	TGI (CAKI-1 renal) [µM]	TGI (NCI/ADR-RES ovarian) [µM]	TGI (TK-10 renal) [µM]	TGI (SK-MEL-5 melanoma) [µM]	TGI (T-47D breast) [µM]	TGI (HT29 colon) [µM]
NC(CCC(=O)O)C(=O)NC(Cc1ccc(N(CCCl)CCCl)cc1)C(=O)O (stereo unspecified)	> 100	> 100	> 100	> 100	> 100	> 100	> 100	> 100 µM and 28.5 µM	> 100	> 100	> 100	> 100	> 100	> 100	> 100	> 100	> 100	> 100	> 100	> 100
CC(C)=CCC[C@@H](C)C1=C(N)C(O)=C(C)C(=O)C1=O	> 75	> 75	> 75	> 75	> 75	> 75	> 75	–	> 75	> 75	> 67.9	> 53.4	> 75	50.9	> 75	> 38.8	> 75	> 75	> 75	> 48
COC(=O)[C@@H]1Cc2ccc(OC)c(c2)OCCC(=O)N1	> 100	> 100	> 100	> 100	> 100	> 100	> 100	–	> 100	> 100	> 100	> 100	> 100	> 100	> 100	> 100	> 100	> 100	> 100	> 100
O=C(Nc1ccc(Cl)cc1Cl)C1C(=O)OC2(CCCCC2)OC1=O	32.2	22	28.7	64.9	29.6	19.1	12.6	–	64.1	28	26.7	33.9	30.1	52.5	22.5	26.4	> 100	22.1	62.2	25
CCCCCCCCCCCCCCCCOP(=O)([O-])OCC[N+](C)(C)C1CC(C)(C)N(O)C(C)(C)C1	> 100	> 100	> 100	> 100	> 100	> 100	> 100	–	> 100	> 100	> 100	> 100	> 100	> 100	> 100	> 100	> 100	> 100	> 100	> 100
COc1ccc(NC(=S)c2ccc([N+](=O)[O-])o2)cc1	25.7	5.01	10.2	> 43.1	4.42	5.52	4.15	–	8.63	9.53	2.75	5.42	7.28	2.92	14.1	12.2	9.84	13.1	17.3	3.7
CC1OC(OC2C(OC(=O)[C@]34CCC(C)(C)C[C@H]3C3=CC[C@@H]5[C@@]6(C)CC[C@H](OC7OC(CO)C(O)C(O)C7OC7OC(CO)C(O)C(O)C7O)C(C)(C)[C@@H]6CC[C@@]5(C)[C@]3(C)CC4)OCC(O)C2O)C(O)C(O)C1OC1OCC(O)C(O)C1O (stereo partly specified)	31.9	25.4	24.8	40.2	29.3	24.5	17.2	–	23.8	21.7	3.28	24.5	16.7	12.1	18.3	29.1	21.7	28	42.3	19.8
CCCCCC(=O)OC[n+]1cccc(-c2c(COC(=O)NC(C)C)c(COC(=O)NC(C)C)c3n2CCC3)c1	> 100	> 67.1	> 100	> 100	> 100	> 100	94.7	–	> 73.8	> 100	> 100	> 100	> 100	25.2	> 53.9	> 100	> 100	> 100	> 100	> 100
CC(C)(C)OC(=O)/N=C/c1c(O)c2ccccc2oc1=O	0.0852	> 100	> 100	65.9	> 100	> 100	45.2	–	> 100	> 100	> 100	> 100	> 100	0.0208	52.6	> 100	66.7	> 100	> 100	> 100
CCOc1ccc(NC(=O)C(=O)C(/C(=N/N)C(=O)OC)c2nc3ccc([N+](=O)[O-])cc3[nH]c2=O)cc1 (stereo unspecified)	> 100	> 100	> 100	> 100	> 100	> 100	> 100	–	> 100	> 100	> 100	> 100	> 100	> 100	> 100	> 100	> 100	> 100	> 100	> 100
O=C(/C=C/c1ccccc1)CCN1CCCCC1	> 100	75	> 100	> 100	89.9	89.8	> 100	–	> 100	> 100	38.4	> 100	32.4	47.4	> 100	> 100	> 100	> 100	> 100	43.3
O=c1c2sc3ccccc3sc=2c(=O)c2c(Cl)c(Cl)c(Cl)c(Cl)c12	> 100	> 100	> 100	> 100	> 100	> 100	> 100	–	> 100	> 100	> 100	> 100	> 100	> 100	> 100	> 100	> 100	> 100	> 100	> 100
Cc1cc2nnn(C3CCCCO3)c2cc1C (stereo unspecified)	> 100	> 100	> 100	> 100	> 100	> 100	> 100	–	> 100	> 100	> 100	> 100	> 100	> 100	> 100	> 100	> 100	> 100	> 100	> 100
Nc1ccc2c(=S)c3ccccc3[nH]c2c1	98.5	98.9	> 100	> 100	> 100	> 100	> 100	–	> 100	> 100	> 100	> 100	> 83.3	79.2	> 100	> 100	> 100	> 100	> 59	> 100
Cc1nc2ccc(N=Nc3c(C)noc3C)cc2[nH]1	56.7	52.4	> 100	58.4	84	> 100	> 100	–	69.9	> 100	34.5	86.2	> 100	> 100	86.8	> 100	> 100	29.8	15.2	71.1
